Measured values from patent US11207303B2, “Therapeutic agent for fibrodysplasia ossificans progressiva” (Kyoto University, priority 2015, dated 2021).

System: mesenchymal stem cell-like cells derived from iPS cells established from a FOP patient (ACVR1 R206H)
Assay: Activin-A-induced chondrogenic differentiation of FOP patient-derived cells (sulfated glycosaminoglycan quantification)
Format: cell-based
Settings: 100 ng/mL human activin-A, compound 0.01 to 100 nM, six days, P<0.0001 at 0.1-100 nM rapamycin, 1-100 nM everolimus or temsirolimus vs activin-A only
Excerpt: According to the method of Yamanaka et. al., (Cell, 2007, 131 (5), […]), iPS cells derived from a FOP patient (referred to as “patient-derived iPS cells” in some cases hereafter) were established. […] This mutation is a mutation that replaces the 206th arginine residue into a histidine residue in the amino acid sequence of ACVR1 (the amino acid sequence as set forth in SEQ ID NO:2). In addition, with a view toward using as a control, the mutation of the ACVR1 gene described above was corrected to the normal type (the wild type) by the gene correction with a BAC (Bacterial Artificial Chromosome) knock-in vector, thus establishing corrected iPS cells which may be referred to as “gene-corrected (rescued) iPS cell clone” in some cases hereafter.
The patient-derived iPS cells were cultured on a Matrigel coated plate [manufactured by Becton, Dickinson and Company; trade name, Growth Factor Reduced (GFR) BD MATRIGEL (registered trademark)] in mTeSR1 (manufactured by STEMCELL Technologies Inc.) under a feeder-free condition for two days. […]
These mesenchymal stem cell-like cells were cultured under a condition of a chondrogenic induction medium according to the method of Umeda (Sci. Rep, 2012, 2, 455) for six days and differentiated into chondrocytes. […] Also, compounds for which their inhibitory effect against the chondrogenic differentiation were to be evaluated (concentrations of from 0.01 to 100 nM) were added simultaneously with human activin-A (referred to as “activin-A” in some cases hereafter). […] The degree of differentiation into chondrocytes was measured with a quantification kit for sulfated glycosaminoglycan (manufactured by Biocolor Inc.; trade name, Blyscan Glycosaminoglycan Assay Kit). […]

Row | SMILES | chondrogenic differentiation (amount of sulfated glycosaminoglycan)
1 | CO[C@H]1C[C@@H]2CC[C@@H](C)[C@@](O)(O2)C(=O)C(=O)N2CCCC[C@H]2C(=O)O[C@H]([C@H](C)C[C@@H]2CC[C@@H](OC(=O)C(C)(CO)CO)[C@H](OC)C2)CC(=O)[C@H](C)/C=C(\C)[C@@H](O)[C@@H](OC)C(=O)[C@H](C)C[C@H](C)/C=C/C=C/C=C/1C [temsirolimus] | suppressed the chondrogenic differentiation
2 | CO[C@H]1C[C@@H]2CC[C@@H](C)[C@@](O)(O2)C(=O)C(=O)N2CCCC[C@H]2C(=O)O[C@H]([C@H](C)C[C@@H]2CC[C@@H](OP(C)(C)=O)[C@H](OC)C2)CC(=O)[C@H](C)/C=C(\C)[C@@H](O)[C@@H](OC)C(=O)[C@H](C)C[C@H](C)/C=C/C=C/C=C/1C [ridaforolimus] | suppressed the chondrogenic differentiation
3 | CO[C@H]1C[C@@H]2CC[C@@H](C)[C@@](O)(O2)C(=O)C(=O)N2CCCC[C@H]2C(=O)O[C@H]([C@H](C)C[C@@H]2CC[C@@H](OCCO)[C@H](OC)C2)CC(=O)[C@H](C)/C=C(\C)[C@@H](O)[C@@H](OC)C(=O)[C@H](C)C[C@H](C)/C=C/C=C/C=C/1C [everolimus] | suppressed the chondrogenic differentiation
